{"source": "patent US7589092B2", "about": "“Prodrugs of heteroaryl compounds” (Koronis Pharmaceuticals, Incorporated, priority 2003, dated 2009)", "key": {"[1]": {"test_system": "HIV", "conditions": "Bouchard et al.; cited from earlier work"}, "[2]": {"conditions": "deamination product of 5-aza-dC; Momparler et al.; cited from earlier work"}, "[3]": {"test": "Bioavailability / pharmacokinetic study in dogs", "type": "in vivo, Canis familiaris", "conditions": "dog", "text": "This study tested the bioavailability of different test compounds in dogs, by intravenous or oral gavage administration, at prescribed dose levels. The animals tested in this study were Canis familiaris, from Harlan Sprague Dawley (Indianapolis, Ind.). Four dogs (2 males and 2 females), with an average age of seven months, were included in each test group. The dogs were identified by ear tattoos, and given a fourteen day acclimatization period prior to the commencement of testing. Dogs were group housed but separated by sex. The animal room environment was controlled and monitored daily. The temperature ranged from 18 to 29° C. and the relative humidity ranged from 30%-70%. The photocycle was 12 hours light and 12 hours dark. All animals were submitted to a general physical examination and only those found healthy were admitted for the study. All selected animals were given two days to adjust to laboratory conditions before the study began. Teklad Dog Diet was fed twice daily and water was constantly available to the dogs throughout the acclimatization and study periods. Twenty-four hours prior to the initiation of the study, animals were randomly selected into two groups with 1 male and 1 female in each group. […] Blood was collected from the v. cephalica antebrachii of each of the two animals prior to study initiation, at thirty minutes and at 1, 2, 4, and 12 hours after dosing. […] IV dosages of DHAdC, as well as oral dosages of prodrugs […] C9-DHAdC were recorded. The dogs were administered 50 mg/kg DHAdC or DHAdC equivalent in the case of prodrugs. The maximum concentration (Cmax), clearance (AUC∞), half-life (T1/2), and % Oral Bioavailability were recorded and are presented in Table 2: […]"}, "[4]": {"conditions": "test concentration 100 um, RT, 60 minutes equilibration", "method": "The compounds were first dissolved in a 60% methanol/40% water (v/v) solution containing 1% DMSO and brought to a concentration of 100 μM. The optimal detection wavelength was determined and calibration studies were performed with the solution. After calibration, the compounds were placed into n-octanol-PBS buffer at pH 7.4 at RT. The mixture was shaken and allowed to equilibrate for 60 minutes. The amount of compound in the PBS buffer phase was then determined by HPLC/UV-Vis. The amount of compound in n-octanol was determined by subtracting […]. This experiment was conducted for three samples. These three samples were then each corrected for volume and the results were averaged. Log D was calculated as the Log10 of the amount of compound in the n-octanol phase divided by the amount of compound in the buffer phase.\nLipophilicity is a major structural factor that influences the pharmacokinetic and pharmacodynamic behavior of compounds. In this assay, prodrugs C7-DHAdC, C8-DHAdC, and C9-DHAdC were partitioned between n-octanol and phosphate buffered saline (PBS)."}, "[5]": {"test": "Bioavailability / pharmacokinetic study in rats", "type": "in vivo", "conditions": "rat", "text": "This study tested the bioavailability of different test compounds in rats, by oral gavage administration, at prescribed dose levels. The animals tested in this study were Rattus norvegicus, CD strain, from Charles River Canada (Montreal, Canada). Six males were included in each test group. Their weight ranged from 200 to 250 grams before fasting. […] Rats were individually housed in Nalgene rat cages with stainless steel covers. The animal room environment was controlled and monitored daily. The temperature ranged from 18 to 26° C. and the relative humidity ranged from 30%-70%. The photocycle was 12 hours light and 12 hours dark. All animals were submitted to a general physical examination and only those found healthy were admitted for the study. All selected animals were given two days to adjust to laboratory conditions before the study began. Teklad rodent Diet and water were constantly available to the rats throughout the acclimatization and study periods. Forty-eight hours prior to the initiation of the study, animals were randomly selected and two subsets of 3 male rats per group were formed. Due to the large volume of blood taken, collections will be done by alternating timepoints between subsets. All animals were fasted for twelve hours prior to the initiation of the study. […] Blood was collected from the orbital sinus of animals from each group at thirty minutes and at 1, 2, 4, and 12 hours after dosing. At each blood collection time point, three rats per group were bled. […] Oral and IV dosages of DHAdC, as well as oral dosages of prodrugs C7-DHAdC and C9-DHAdC were recorded. The rats were administered 100 mg/kg DHAdC or DHAdC equivalent in the case of prodrugs. The maximum concentration (Cmax), clearance (AUC∞), half-life (T1/2), and % Oral Bioavailability were recorded and are presented in Table 1: […]"}, "[6]": {"conditions": "oral gavage, 50 mg/kg DHAdC equivalent"}, "[7]": {"conditions": "oral gavage, 100 mg/kg DHAdC or DHAdC equivalent"}, "[8]": {"conditions": "both sexes, blood, IV, 50 mg/kg DHAdC"}, "[9]": {"conditions": "male, CD, blood, IV, 100 mg/kg DHAdC"}, "[10]": {"conditions": "male, CD, blood, oral gavage, 100 mg/kg DHAdC or DHAdC equivalent"}}}
{"compound": "Nc1ncn([C@H]2C[C@H](O)[C@@H](CO)O2)c(=O)n1", "note": "[Compound 5-aza-dC, 5-aza-2′-deoxycytidine]", "values": [{"measurement": "HIV replication in vitro", "setting": "[1]", "value": "inhibit HIV replication in vitro"}]}
{"compound": "O=c1ncn([C@H]2C[C@H](O)[C@@H](CO)O2)c(=O)[nH]1", "note": "[Compound 5-aza-dU, 5-aza-2′-deoxyuridine]", "values": [{"measurement": "antineoplastic activity", "setting": "[2]", "value": "loss of antineoplastic activity"}]}
{"compound": "CCCCCCCOC(=O)NC1=NC(=O)N([C@H]2C[C@H](O)[C@@H](CO)O2)CN1", "note": "[Compound C7-DHAdC, N^4-Heptyloxycarbonyl-β-2′-deoxy-5,6-dihydro-5-azacytidine]", "values": [{"measurement": "AUC∞", "setting": "[3]; [6]", "value": "59,377 ng-hr/mL"}, {"measurement": "Cmax", "setting": "[3]; [6]", "value": "11,282 ng/mL"}, {"measurement": "Oral bioavailability", "setting": "[3]; [6]", "value": 51, "unit": "%"}, {"measurement": "T1/2", "setting": "[3]; [6]", "value": 2.1, "unit": "h"}, {"measurement": "log D n-Octanol PBS pH 7.4", "setting": "[4]", "value": 2.04}, {"measurement": "AUC∞", "setting": "[5]; [7]", "value": "32,101 ng-hr/mL"}, {"measurement": "Cmax", "setting": "[5]; [7]", "value": "5,577 ng/mL"}, {"measurement": "Oral bioavailability", "setting": "[5]; [7]", "value": 43, "unit": "%"}, {"measurement": "T1/2", "setting": "[5]; [7]", "value": 3.9, "unit": "h"}]}
{"compound": "CCCCCCCCOC(=O)NC1=NC(=O)N([C@H]2C[C@H](O)[C@@H](CO)O2)CN1", "note": "[Compound C8-DHAdC, N^4-Octyloxycarbonyl-β-2′-deoxy-5,6-dihydro-5-azacytidine]", "values": [{"measurement": "AUC∞", "setting": "[3]; [6]", "value": "17,845 ng-hr/mL"}, {"measurement": "Cmax", "setting": "[3]; [6]", "value": "5,172 ng/mL"}, {"measurement": "Oral bioavailability", "setting": "[3]; [6]", "value": 11, "unit": "%"}, {"measurement": "T1/2", "setting": "[3]; [6]", "value": 2.8, "unit": "h"}, {"measurement": "log D n-Octanol PBS pH 7.4", "setting": "[4]", "value": 2.56}]}
{"compound": "CCCCCCCCCOC(=O)NC1=NC(=O)N([C@H]2C[C@H](O)[C@@H](CO)O2)CN1", "note": "[Compound C9-DHAdC, N^4-Nonyloxycarbonyl-β-2′-deoxy-5,6-dihydro-5-azacytidine]", "values": [{"measurement": "AUC∞", "setting": "[3]; [6]", "value": "54,540 ng-hr/mL"}, {"measurement": "Cmax", "setting": "[3]; [6]", "value": "8,932 ng/mL"}, {"measurement": "Oral bioavailability", "setting": "[3]; [6]", "value": 36, "unit": "%"}, {"measurement": "T1/2", "setting": "[3]; [6]", "value": 2.2, "unit": "h"}, {"measurement": "log D n-Octanol PBS pH 7.4", "setting": "[4]", "value": 3.16}, {"measurement": "AUC∞", "setting": "[5]; [7]", "value": "26,472 ng-hr/mL"}, {"measurement": "Cmax", "setting": "[5]; [7]", "value": "5,550 ng/mL"}, {"measurement": "Oral bioavailability", "setting": "[5]; [7]", "value": 35, "unit": "%"}, {"measurement": "T1/2", "setting": "[5]; [7]", "value": 3.6, "unit": "h"}]}
{"compound": "NC1=NC(=O)N([C@H]2C[C@H](O)[C@@H](CO)O2)CN1", "note": "[DHAdC, 5,6-dihydro-5-aza-2′-deoxycytidine]", "values": [{"measurement": "AUC(0-inf)", "setting": "[3]; [8]", "value": 156000, "unit": "ng·h/mL"}, {"measurement": "half-life", "setting": "[3]; [8]", "value": 2.1, "unit": "h"}, {"measurement": "Cmax", "setting": "[3]; both sexes, blood, IV, 50 mg/kg DHAdC, read-out: Cmax", "value": 76300, "unit": "ng/mL"}, {"measurement": "AUC(0-inf)", "setting": "[5]; [9]", "value": 75000, "unit": "ng·h/mL"}, {"measurement": "half-life", "setting": "[5]; [9]", "value": 1.8, "unit": "h"}, {"measurement": "Cmax", "setting": "[5]; male, CD, blood, IV, 100 mg/kg DHAdC, read-out: Cmax", "value": 40000, "unit": "ng/mL"}, {"measurement": "AUC(0-inf)", "setting": "[5]; [10]", "value": 8540, "unit": "ng·h/mL"}, {"measurement": "bioavailability", "setting": "[5]; [10]", "value": 11, "unit": "%"}, {"measurement": "half-life", "setting": "[5]; [10]", "value": 0.8, "unit": "h"}, {"measurement": "Cmax", "setting": "[5]; male, CD, blood, oral gavage, 100 mg/kg DHAdC or DHAdC equivalent, read-out: Cmax", "value": 1860, "unit": "ng/mL"}]}
